Data set [1] can be described thus: Metabolic stability in monkey plasma assessed as unchanged drug level at 185 MBq/0.1 mL, iv after 30 mins. In kind it is ADME, organism-based, Macaca mulatta. The conditions noted are these: rhesus monkey, read-out: Stability.
Data set [2] in a line: Drug uptake in monkey cingulate cortex at 185 to 220 MBq, iv after 10 to 60 mins by PET analysis. The conditions noted are these: rhesus monkey, in vivo. Format: ADME, organism-based, Macaca mulatta.
A further data set concerns Lung. Nature of the data set: Biodistribution in ddY mouse lung at 4.8 MBq/0.1 mL after 90 mins by gamma counting. The conditions noted are these: in vivo, 1.5 h. In kind it is ADME, organism-based.
Another data set relates to Kidney. As to the kind of experiment: Biodistribution in ddY mouse kidney at 4.8 MBq/0.1 mL after 60 mins by gamma counting. Format: ADME, organism-based. The conditions noted are these: in vivo, 1 h.
For the next data set, the species on record is Mus musculus. Nature of the data set: Biodistribution in ddY mouse testis at 4.8 MBq/0.1 mL after 15 mins by gamma counting. In kind it is ADME, organism-based. The conditions noted are these: in vivo, 0.25 h.

For `CC(C)Nc1cc(-c2csc(N(C)C(=O)c3ccc([14CH3])cc3)n2)ncn1`, in data set [1], the remaining at 0.5 h amounted to 35.8%. Also, the Drug uptake entry is on record as “Active” in data set [2], 0.12 % ID/g with Lung, 0.22 % ID/g in the data set with Kidney and 0.41 % ID/g in the data set listed under Mus musculus.
